Laboratory results: patent publication US20130331261A1 (priority 2010, published 2013)

Tests used:
Assay type in all cases: cell-based
[1] = test system: Fumonisin FB1 production by Fusarium proliferatum; test: Inhibition of fumonisin FB1 production by Fusarium proliferatum in fumonisin-inducing liquid media (HPLC-MS/MS); details: 120 h, 5 days at 20° C., vs control without compound
Fusarium proliferatum = test: microbe, parasite or virus in culture; details: 120 h
[2] = test system: Production of Aflatoxins by Aspergillus parasiticus; test: microbe, parasite or virus in culture; details: 168 h, read-out: % Inhibition of Aflatoxin at 50 μM
Aspergillus parasiticus = test: microbe, parasite or virus in culture; details: 168 h, read-out: % Inhibition of fungal growth at 50 μM
Fusarium graminearum = test: microbe, parasite or virus in culture; details: 72 h, read-out: % Inhibition of fungal growth at 50 μM
[3] = test system: DON/Acetyl-DON production by Fusarium graminearum; test: microbe, parasite or virus in culture; details: 168 h, read-out: % Inhibition of DON/AcDON at 50 μM

COC(c1ccc(Cl)cc1Cl)C(C)NC(=O)c1cn(C)nc1C(F)F (stereo not drawn) [Example 1]
inhibition at 50 µM [1]: 100%
inhibition at 50 µM (Fusarium proliferatum): 67%
inhibition at 50 µM [2]: 100%
inhibition at 50 µM (Aspergillus parasiticus): 100%
inhibition at 50 µM (Fusarium graminearum): 54%
inhibition at 50 µM [3]: 100%

COC(c1ccc(Cl)cc1Cl)C(C)NC(=O)c1c(C)nn(C)c1F (stereo not drawn) [Example 2]
inhibition at 50 µM [1]: 100%
inhibition at 50 µM (Fusarium proliferatum): 77%
inhibition at 50 µM [2]: 100%
inhibition at 50 µM (Aspergillus parasiticus): 100%
inhibition at 50 µM (Fusarium graminearum): 58%
inhibition at 50 µM [3]: 100%

COC(c1ccc(Cl)cc1Cl)C(C)NC(=O)c1c(C(F)F)nn(C)c1F (stereo not drawn) [Example 3]
inhibition at 50 µM [1]: 100%
inhibition at 50 µM (Fusarium proliferatum): 86%
inhibition at 50 µM [2]: 100%
inhibition at 50 µM (Aspergillus parasiticus): 100%
inhibition at 50 µM (Fusarium graminearum): 41%
inhibition at 50 µM [3]: 100%
